Data taken from patent publication US5300513A, “Carbostyril derivatives and pharmaceutical composition containing the same” (Otsuka Pharmaceutical Co., Ltd., priority 1990, dated 1994).
Structures can show the parent of a compound that is named as a salt.

target: T1, V1 receptor (Rattus norvegicus, UniProt P30560); experiment: V1 receptor binding assay (inhibition of [3H]-Arg-vasopressin binding to rat liver plasma membrane); conditions: not given
T1 construct: Using rat liver plasma membrane preparations; from tissue; host or cells: rat liver plasma membranes
Procedure: Using rat liver plasma membrane preparations prepared according to Ichihara's method [cf: Akira Ichihara, J. Bio. […] After incubation, the mixture is filtered three times using the glass filter (GF/F) so as to separate the membrane preparation combined with vasopressin and then washed with the buffer (5 ml). This glass filter is taken out and mixed with liquid scintillation cocktail. The amount of [H]^3 -vasopressin combined with the membrane is measured by liquid scintillation counter and the rate of the inhibitory effect of the test compound is estimated according to the following equation. [formula]

T1 sequence (P30560 whole entry): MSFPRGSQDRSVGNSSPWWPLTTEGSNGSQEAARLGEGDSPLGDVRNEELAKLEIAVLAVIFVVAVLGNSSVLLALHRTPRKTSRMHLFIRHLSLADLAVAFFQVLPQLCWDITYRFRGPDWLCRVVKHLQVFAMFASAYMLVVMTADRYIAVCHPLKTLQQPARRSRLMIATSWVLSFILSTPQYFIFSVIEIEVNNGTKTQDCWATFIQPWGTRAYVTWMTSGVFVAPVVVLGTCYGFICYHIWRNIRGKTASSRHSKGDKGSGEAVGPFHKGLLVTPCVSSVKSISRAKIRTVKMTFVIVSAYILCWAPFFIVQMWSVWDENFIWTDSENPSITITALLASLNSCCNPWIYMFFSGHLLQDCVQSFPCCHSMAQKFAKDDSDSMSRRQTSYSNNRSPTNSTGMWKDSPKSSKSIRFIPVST

Compound | IC50 [nM]
C=CCSc1ccc(C(=O)N2CCC(N3C(=O)CCc4ccccc43)CC2)c(OC)c1 [Test Compound 16, 1-[1-(2-Methoxy-4-allylthiobenzoyl)-4-piperidinyl]-3,4-dihydrocarbostyril] | 110

same assay, conditions: rat liver plasma membrane; [H]^3-Arg-vasopressin 2×10^-10 M; 37° C., 10 minutes, pH 8.0; read-out: IC50

Compound | IC50 [nM]
O=C(c1ccc(OCCCCCN2CCC3(CCCCC3)CC2)cc1)N1CCC(N2C(=O)CCc3ccccc32)CC1 [Test Compound 1, 1-[1-{4-[5-(Cyclohexanespiro-4'-(1-piperidinyl))pentyloxy]benzoyl}-4-piperidinyl]-3,4-dihydrocarbostyril] | 47
O=C(c1ccc(OCCCCCNC23CC4CC(CC(C4)C2)C3)cc1)N1CCC(N2C(=O)CCc3ccccc32)CC1 [Test Compound 2, 1-{1-[4-(5-Tricyclo[3.3.1.1^3.7]decanylaminopentyloxy)benzoyl]-4-piperidinyl}-3,4-dihydrocarbostyril hydrochloride] | 27
O=C(c1ccc(OCCCCCNCC23CC4CC(CC(C4)C2)C3)cc1)N1CCC(N2C(=O)CCc3ccccc32)CC1 [Test Compound 3, 1-{1-[4-(5-Tricyclo[3.3.1.1^3.7]decanylmethylaminopentyloxy)benzoyl]-4-piperidinyl}-3,4-dihydrocarbostyri] | 100
O=C(c1ccc(OCCCCCNCC(F)(F)F)cc1)N1CCC(N2C(=O)CCc3ccccc32)CC1 [Test Compound 4, 1-[1-{4-[5-(2,2,2-Trifluoroethylamino)-pentyloxy)benzoyl}-4-piperidinyl}-3,4-dihydrocarbostyril] | 320
CCOC(=O)CC(=O)OCCN(C)CCCCCOc1ccc(C(=O)N2CCC(N3C(=O)CCc4ccccc43)CC2)cc1 [Test Compound 5, 1-[1-{4-[5-[N-Methyl-N-(2-ethoxycarbonylacetyloxyethyl)amino}pentyloxy]benzoyl}-4-piperidinyl]-3,4-dihydrocarbostyril] | 110
C=CCNCC(O)CCCCOc1ccc(C(=O)N2CCC(N3C(=O)CCc4ccccc43)CC2)cc1 (stereo not drawn) [Test Compound 6, 1-{1-[4-(5-Hydroxy-6-allylaminohexyloxy)benzoyl]-4-piperidinyl}-3,4-dihydrocarbostyril] | 140
NC1CCN(CCCCCOc2ccc(C(=O)N3CCC(N4C(=O)CCc5ccccc54)CC3)cc2)CC1 [Test Compound 7, 1-[1-{4-[5-(4-Amino-1-piperidinyl)pentyloxy)-benzoyl-}-4-piperidinyl]-3,4-dihydrocarbostyril] | 28
O=C(c1ccc(OCCCCCN2CCC(NC(=O)C(F)(F)F)CC2)cc1)N1CCC(N2C(=O)CCc3ccccc32)CC1 [Test Compound 8, 1-[1-{4-[5-(4-Trifluoroacetylamino-1-piperidinyl)pentyloxy]benzoyl}-4-piperidinyl]-3,4-dihydrocarbostyril] | 63
CC(=O)NC1CCN(CCCCCOc2ccc(C(=O)N3CCC(N4C(=O)CCc5ccccc54)CC3)cc2)CC1 [Test Compound 9, 1-[1-{4-[5-(4-Acetylamino-1-piperidinyl)-pentyloxy)benzoyl}-4-piperidinyl]-3,4-dihydrocarbostyril] | 36
CCN(CC)CC(CCCCOc1ccc(C(=O)N2CCC(N3C(=O)CCc4ccccc43)CC2)cc1)OC(=O)NC (stereo not drawn) [Test Compound 10, 1-{1-[4-(5-Methylaminocarbonyloxy-6-diethylaminohexyloxy)benzoyl]-4-piperidinyl}-3,4-dihydrocarbostyril] | 38
CCOc1ccc(C(=O)N2CCC(N3C(=S)CCc4ccccc43)CC2)c(OC)c1 [Test Compound 11, 1-[1-(2-Methoxy-4-ethoxybenzoyl)-4-piperidinyl]-3,4-dihydrothiocarbostyril] | 730
O=C(c1ccc(SCCCCCN2CCCC2)cc1)N1CCC(N2C(=O)CCc3ccccc32)CC1 [Test Compound 12, 1-[1-{4-[5-(1-Pyrrolidinyl)pentylthio]-benzoyl}-4-piperidinyl]-3,4-dihydrocarbostyril] | 34
O=C(c1ccc(-c2ccccn2)cc1)N1CCC(N2C(=O)CCc3ccccc32)CC1 [Test Compound 13, 1-{1-[4-(2-Pyridyl)benzoyl}-4-piperidinyl}-3,4-dihydrocarbostyril] | 1200
O=C(c1ccc(-c2ncc[nH]2)cc1)N1CCC(N2C(=O)CCc3ccccc32)CC1 [Test Compound 14, 1-{1-[4-(2-Imidazolyl)benzoyl}-4-piperidinyl}-3,4-dihydrocarbostyril] | 1400
Nc1ccccc1Sc1nccn1-c1ccc(C(=O)N2CCC(N3C(=O)CCc4ccccc43)CC2)cc1 [Test Compound 15, 1-[1-{4-[2-(2-Aminophenylthio)-1-imidazolyl]-benzoyl}-4-piperidinyl]-3,4-dihydrocarbostyril] | 800
O=C(c1ccc([S+]([O-])CCCCCN2CCCC2)cc1)N1CCC(N2C(=O)CCc3ccccc32)CC1 (stereo not drawn) [Test Compound 17, 1-[1-{4-[5-(1-Pyrrolidinyl)pentylsulfinyl)-benzoyl}-4-piperidinyl]-3,4-dihydrocarbostyril] | 3000
O=C(c1ccc(S(=O)(=O)CCCCCN2CCCC2)cc1)N1CCC(N2C(=O)CCc3ccccc32)CC1 [Test Compound 18, 1-[1-{4-[5-(1-Pyrrolidinyl)pentylsulfonyl]-benzoyl}-4-piperidinyl]-3,4-dihydrocarbostyril] | 1900
O=C(c1ccc(-c2nc3ccccc3[nH]2)cc1)N1CCC(N2C(=O)CCc3ccccc32)CC1 [Test Compound 19, 1-{1-[4-(2-Benzimidazolyl)benzoyl]-4-piperidinyl}-3,4-dihydrocarbostyril] | 2100
O=C(c1ccc(-n2ccnc2-c2ccccc2)cc1)N1CCC(N2C(=O)CCc3ccccc32)CC1 [Test Compound 20, 1-{1-[4-(2-Phenyl-1-imidazolyl)benzoyl]-4-piperidinyl}-3,4-dihydrocarbostyril] | 2800
COc1ccc(-c2nccn2-c2ccc(C(=O)N3CCC(N4C(=O)CCc5ccccc54)CC3)cc2)cc1 [Test Compound 21, 1-[1-{4-[2-(4-Methoxyphenyl)-1-imidazolyl]-benzoyl}-4-piperidinyl]-3,4-dihydrocarbostyril] | 2700
